Test results taken from patent US7205296B2, “Substituted 2H-1,3-benzoxazin-4(3H)-ones” (Portola Pharmaceuticals, Inc., priority 2004, dated 2007).

How the values were obtained:
platelet ADP receptors = biological target: T1, platelet ADP receptors (Homo sapiens, UniProt Q9H244); experiment: ARB assay: inhibition of [3H]2-MeS-ADP binding to platelets; details: IC50 class, [3H]2-MeS-ADP binding to whole human platelets
T1 construct: endogenous in cells; host or cells: whole apyrase-washed human platelets (outdated from blood banks, or fresh)
T1 sequence (Q9H244 whole entry): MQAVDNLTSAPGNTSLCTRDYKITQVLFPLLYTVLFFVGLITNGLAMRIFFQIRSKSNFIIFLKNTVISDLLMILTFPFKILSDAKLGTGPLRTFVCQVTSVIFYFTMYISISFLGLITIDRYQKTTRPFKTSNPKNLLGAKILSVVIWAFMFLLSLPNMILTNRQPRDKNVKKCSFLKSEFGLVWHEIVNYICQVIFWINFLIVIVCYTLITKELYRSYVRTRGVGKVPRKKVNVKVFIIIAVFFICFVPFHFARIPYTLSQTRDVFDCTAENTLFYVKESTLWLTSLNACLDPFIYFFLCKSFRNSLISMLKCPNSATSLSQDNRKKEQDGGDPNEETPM
Protocol: II. Inhibition of [^3H]2-MeS-ADP Binding to Platelets
Utilizing the second assay the potency of inhibition of such compounds with respect to [^3H]2-MeS-ADP binding to whole platelets is determined. [^3H]2-MeS-ADP binding experiments are routinely performed with outdated human platelets collected by standard procedures at hospital blood banks. Apyrase-washed outdated platelets are prepared as follows (all steps at room temperature, if not indicated otherwise):
Outdated platelet suspensions are diluted with 1 volume of CGS and platelets pelleted by centrifugation at 1900×g for 45 minutes. Platelet pellets are resuspended at 3-6×10^9 platelets/ml in CGS containing 1 U/ml apyrase (grade V, Sigma, St. Louis, Mo.) and incubated for 15 minutes at 37° C. After centrifugation at 730×g for 20 minutes, pellets are resuspended in Hepes-Tyrode's buffer containing 0.1% BSA (Sigma, St. Louis, Mo.) at a concentration of 6.66×10^8 platelets/ml. Binding experiments are performed after >45 minutes resting of the platelets.
Alternatively, binding experiments are performed with fresh human platelets prepared as described in I. (Inhibition of ADP-Mediated Platelet Aggregation in vitro), except that platelets are resuspended in Hepes-Tyrode's buffer containing 0.1% BSA (Sigma, St. Louis, Mo.) at a concentration of 6.66×10^8 platelets/ml. Very similar results are obtained with fresh and outdated platelets.
A platelet ADP receptor binding assay using the tritiated potent agonist ligand [^3H]2-MeS-ADP (Jantzen, H. M. et al. (1999) Thromb. Hemost. 81:111–117) has been adapted to the 96-well microtiter format. In an assay volume of 0.2 ml Hepes-Tyrode's buffer with 0.1% BSA and 0.6% DMSO, 1×10^8 apyrase-washed platelets are preincubated in 96-well flat bottom microtiter plates for 5 minutes with serial dilutions of test compounds before addition of 1 nM [^3H]2-MeS-ADP ([^3H]2-methylthioadenosine-5′-diphosphate, ammonium salt; specific activity 48–49 Ci/mmole, obtained by custom synthesis from Amersham Life Science, Inc., Arlington Heights, Ill., or NEN Life Science Products, Boston, Mass.). Total binding is determined in the absence of test compounds. Samples for nonspecific binding may contain 10^−5 M unlabelled 2-MeS-ADP (RBI, Natick, Mass.). After incubation for 15 minutes at room temperature, unbound radioligand is separated by rapid filtration and two washes with cold (4–8° C.) Binding Wash Buffer (10 mM Hepes pH 7.4, 138 mM NaCl) using a 96-well cell harvester (Minidisc 96, Skatron Instruments, Sterling, Va.) and 8×12 GF/C glassfiber filtermats (Printed Filtermat A, for 1450 Microbeta, Wallac Inc., Gaithersburg, Md.). The platelet-bound radioactivity on the filtermats is determined in a scintillation counter (Microbeta 1450, Wallac Inc., Gaithersburg, Md.). Specific binding is determined by […] binding, and specific binding in the presence of test compounds is expressed as % of specific binding in the absence of test compounds dilutions.

[1] = system: ADP-induced human platelet aggregation; experiment: PRP assay: inhibition of ADP-mediated platelet aggregation in vitro; assay type: cell-based; details: IC50 class
Protocol: I. Inhibition of ADP-Mediated Platelet Aggregation in vitro
The effect of testing the compound according to the invention on ADP-induced human platelet aggregation is preferably assessed in 96-well microtiter assay (see generally the procedures in Jantzen, H. M. et al. (1999) Thromb. Hemost. 81:111–117). Human venous blood is collected from healthy, drug-free volunteers into ACD (85 mM sodium citrate, 111 mM glucose, 71.4 mM citric acid) containing PGI2 (1.25 ml ACD containing 1.6 μM PGI2/10 ml blood; PGI2 was from Sigma, St. Louis, Mo.). Platelet-rich plasma (PRP) is prepared by centrifugation at 160×g for 20 minutes at room temperature. Washed platelets are prepared by centrifuging PRP for 10 minutes at 730×g and resuspending the platelet pellet in CGS (13 mM sodium citrate, 30 mM glucose, 120 mM NaCl; 2 ml CGS/10 ml original blood volume) containing 1 U/ml apyrase (grade V, Sigma, St. Louis, Mo.). After incubation at 37° C. for 15 minutes, the platelets are collected by centrifugation at 730×g for 10 minutes and resuspended at a concentration of 3×10^8 platelets/ml in Hepes-Tyrode's buffer (10 mM Hepes, 138 mM NaCl, 5.5 mM glucose, 2.9 mM KCl, 12 mM NaHCO3, pH 7.4) containing 0.1% bovine serum albumin, 1 mM CaCl2 and 1 mM MgCl2. This platelet suspension is kept >45 minutes at 37° C. before use in aggregation assays.
Inhibition of ADP-dependent aggregation is preferably determined in 96-well flat-bottom microtiter plates using a microtiter plate shaker and plate reader similar to the procedure described by Frantantoni et al., Am. J. Clin. Pathol. 94, 613 (1990). All steps are performed at room temperature. The total reaction volume of 0.2 ml/well includes in Hepes-Tyrodes buffer/0.1% BSA: 4.5×10^7 apyrase-washed platelets, 0.5 mg/ml human fibrinogen (American Diagnostica, Inc., Greenwich, Conn.), serial dilutions of test compounds (buffer for control wells) in 0.6% DMSO. After about 5 minutes preincubation at room temperature, ADP is added to a final concentration of 2 μM which induces submaximal aggregation. Buffer is added instead of ADP to one set of control wells (ADP^− control). The OD of the samples is then determined at 490 nm using a microtiter plate reader (Softmax, Molecular Devices, Menlo Park, Calif.) resulting in the 0 minute reading. The plates are then agitated for 5 min on a microtiter plate shaker and the 5 minute reading is obtained in the plate reader. Aggregation is calculated from the decrease of OD at 490 nm at t=5 minutes compared to t=0 minutes and is expressed as % of the decrease in the ADP control samples after correcting for changes in the unaggregated control samples.

Compound | IC50 (platelet ADP receptors) [nM] | IC50 [1] [nM]
CNc1cc2c(cc1F)C(=O)N(c1ccc(NC(=O)NS(=O)(=O)c3ccc(Cl)s3)cc1)CO2 [Example 5, 1-(5-chlorothiophen-2-ylsulfonyl)-3-(4-(6-fluoro-7-(methylamino)-4-oxo-2H-benzo[e][1,3]oxazin-3(4H)-yl)phenyl)urea] | < 50 | < 10000
CNc1cc2c(cc1F)C(=O)N(c1ccc(NC(=O)NS(=O)(=O)c3ccc(Cl)s3)c(C)c1)CO2 [Example 10, 1-(5-chlorothiophen-2-ylsulfonyl)-3-(4-(6-fluoro-7-(methylamino)-4-oxo-2H-benzo [e][1,3]oxazin-3(4H)-yl)-2-methylphenyl)urea] | 50 to 500 | 10000 to 30000
CNc1cc2c(cc1F)C(=O)N(c1ccc(NC(=O)NS(=O)(=O)c3ccc(Cl)s3)cc1OC)CO2 [Example 15, 1-(5-chlorothiophen-2-ylsulfonyl)-3-(4-(6-fluoro-7-(methylamino)-4-oxo-2H-benzo [e][1,3]oxazin-3(4H)-yl)-3-methoxyphenyl)urea] | < 50 | < 10000
CCOCCOc1cc(NC(=O)NS(=O)(=O)c2ccc(Cl)s2)ccc1N1COc2cc(NC)c(F)cc2C1=O [Example 20, 1-(5-chlorothiophen-2-ylsulfonyl)-3-(3-(2-ethoxyethoxy)-4-(6-fluoro-7-(methylamino)-4-oxo-2H-benzo[e][1,3]oxazin-3(4H)-yl)phenyl)urea] | > 500 | 
CNc1cc2c(cc1F)C(=O)N(c1ccc(NC(=O)NS(=O)(=O)c3ccc(Cl)s3)cc1OCCN(C)C)CO2 [Example 25, 1-(5-chlorothiophen-2-ylsulfonyl)-3-(3-(2-(dimethylamino)ethoxy)-4-(6-fluoro-7-(methylamino)-4-oxo-2H-benzo[e][1,3]oxazin-3(4H)-yl)phenyl)urea] | > 500 | 
CNc1cc2c(cc1F)C(=O)N(c1cc(C)c(NC(=O)NS(=O)(=O)c3ccc(Cl)s3)c(C)c1)CO2 [Example 26, (5-chlorothiophen-2-ylsulfonyl)-3-(4-(6-fluoro-7-(methylamino)-4-oxo-2H-benzo[e][1,3]oxazin-3(4H)-yl)-2,6-dimethylphenyl)urea] | < 50 | < 10000
CNc1cc2c(cc1F)C(=O)N(c1ccc(NC(=O)NS(=O)(=O)c3ccc(Cl)s3)c(OC)c1)CO2 [Example 27, 1-(5-chlorothiophen-2-ylsulfonyl)-3-(4-(6-fluoro-7-(methylamino)-4-oxo-2H-benzo[e][1,3]oxazin-3(4H)-yl)-2-methoxyphenyl)urea] | < 50 | > 30000
CNc1cc2c(cc1F)C(=O)N(c1ccc(NC(=O)NS(=O)(=O)c3ccc(Cl)s3)c(OCCOC)c1)CO2 [Example 28, 1-(5-chlorothiophene-2-ylsulfonyl)-3-(4-(6-fluoro-7-(methylamino)-4-oxo-2H-benzo[e][1,3]oxazin-3(4H)-yl)-2-(2-methoxyethoxy)phenyl)urea] | < 50 | < 10000
CNc1cc2c(cc1F)C(=O)N(c1ccc(NC(=O)NS(=O)(=O)c3ccc(Cl)s3)c(OCCN(C)C)c1)CO2 [Example 34] | 50 to 500 | 10000 to 30000
CNc1cc2c(cc1F)C(=O)N(c1ccc(NC(=O)NS(=O)(=O)c3ccc(Cl)s3)c(C(=O)N(C)C)c1)CO2 [Example 37, 1-(5-chlorothiophen-2-ylsulfonyl)-3-(2-(dimethylcarbamoyl)-4-(6-fluoro-7-(methylamino)-4-oxo-2H-benzo[e][1,3]oxazin-3(4H)-yl)phenyl)urea] | 50 to 500 | 
CNc1cc2c(cc1F)C(=O)N(c1ccc(NC(=O)NS(=O)(=O)c3ccc(Cl)s3)c(C(N)=O)c1)CO2 [Example 39, 1-(2-carbamoyl-4-(6-fluoro-7-(methylamino)-4-oxo-2H-benzo[e][1,3]oxazin-3(4H)-yl)phenyl)-3-(5-chlorothiophen-2-ylsulfonyl)urea] | < 50 | < 10000
CNc1cc2c(cc1F)C(=O)N(c1ccc(NC(=O)NS(=O)(=O)c3ccc(Cl)s3)nc1)CO2 [Example 41, 1-(5-chlorothiophen-2-ylsulfonyl)-3-(5-(6-fluoro-7-(methylamino)-4-oxo-2H-benzo[e][1,3]oxazin-3(4H)-yl)pyridin-2-yl)urea] | < 50 | < 10000
CNc1cc2c(cc1F)C(=O)N(c1cnc(NC(=O)NS(=O)(=O)c3ccc(Cl)s3)c(C)c1)CO2 [Example 42, 1-(5-chlorothiophen-2-ylsulfonyl)-3-(5-(6-fluoro-7-(methylamino)-4-oxo-2H-benzo [e][1,3]oxazin-3(4H)-yl)-3-methylpyridin-2-yl)urea] | < 50 | < 10000
CNc1cc2c(cc1F)C(=O)N(c1ccc(NC(=O)NS(=O)(=O)c3ccc(C)s3)nc1)CO2 [Example 43] | < 50 | < 10000
CNc1cc2c(cc1F)C(=O)N(c1ccc(NC(=O)NS(=O)(=O)c3ccc(OC)s3)nc1)CO2 [Example 44, 1-(5-(6-fluoro-7-(methylamino)-4-oxo-2H-benzo[e][1,3]oxazin-3(4H)-yl)pyridin-2-yl)-3-(5-methoxythiophen-2-ylsulfonyl)urea] | 50 to 500 | > 30000
CNc1cc2c(cc1F)C(=O)N(c1ccc(NC(=O)NS(=O)(=O)c3ccc(OC)s3)cc1)CO2 [Example 45] | < 50 | > 30000
CNc1cc2c(cc1F)C(=O)N(c1ccc(NC(=O)NS(=O)(=O)c3ccc(C)s3)cc1)CO2 [Example 46, 1-(4-(6-fluoro-7-(methylamino)-4-oxo-2H-benzo[e][1,3]oxazin-3(4H)-yl)-3-5-methylthiophen-2ylsulfonyl)urea] | < 50 | 10000 to 30000
CNc1cc2c(cc1Cl)C(=O)N(c1ccc(NC(=O)NS(=O)(=O)c3ccc(Cl)s3)cc1)CO2 [Example 51, 1-(5-chlorothiophen-2-ylsulfonyl)-3-(4-(6-chloro-7-(methylamino)-4-oxo-2H-benzo[e][1,3]oxazin-3(4H)-yl)phenyl)urea] | < 50 | > 30000
CNc1cc2c(cc1F)C(=O)N(c1ccc(C(=O)NS(=O)(=O)c3ccc(Cl)s3)cc1)CO2 [Example 56, N-(5-chlorothiophen-2-ylsulfonyl)-4-(6-fluoro-7-(methylamino) -4-oxo-2H-benzo[e] [1,3]oxazin-3(4H)-yl) benzamide] | < 50 | < 10000
